According to ChEMBL document CHEMBL4118193, “1,2,3,4,6-Penta-O-galloyl-β-d-glucose suppresses colon cancer through induction of tumor suppressor” (Bioorg Med Chem Lett, 2018):
The source made the active and inactive calls. The rule behind the calls is not given here.

Key:
HT-29 [1] = assay: Induction of apoptosis in human HT-29 cells assessed as increase in caspase-3/7 activity at 1 to 10 uM measured after 48 hrs by Caspase-Glo 3/7 assay; type: functional, cell-based
HT-29 [2] = assay: Cytotoxicity against human HT-29 cells at 1 to 10 uM after 48 hrs by CytoTox-96 non-radioactive assay; type: functional, cell-based
HCT-116 [3] = assay: Induction of apoptosis in human HCT116 cells after 48 hrs by Annexin-V and dead cell assay; type: functional, cell-based
HT-29 [4] = assay: Induction of apoptosis in human HT-29 cells assessed as cleaved caspase-3 protein level at 5 uM after 48 hrs by Western blot method relative to caspase-3; type: functional
HCT-116 [5] = assay: Induction of apoptosis in human HCT116 cells assessed as CDK2 protein level at 5 uM after 48 hrs by Western blot method relative to beta-actin; type: functional
HCT-116 [6] = assay: Induction of apoptosis in human HCT116 cells assessed as cleaved caspase-3 protein level at 1 uM after 48 hrs by Western blot method relative to caspase-3; type: functional
HT-29 [7] = assay: Induction of apoptosis in human HT-29 cells assessed as p53 protein level at 1 uM after 48 hrs by Western blot method relative to beta-actin; type: functional
HCT-116 [8] = assay: Induction of apoptosis in human HCT116 cells assessed as in p53 protein level at 5 uM after 48 hrs by Western blot method relative to beta-actin; type: functional
HCT-116 [9] = assay: Induction of apoptosis in human HCT116 cells assessed as early apoptotic cells at 2.5 uM after 48 hrs by Annexin-V and dead cell assay (reference value: 1.70%); type: functional
HT-29 [10] = assay: Induction of apoptosis in human HT-29 cells assessed as CDK2 protein level at 2.5 uM after 48 hrs by Western blot method relative to beta-actin; type: functional
HT-29 [11] = assay: Cytotoxicity against human HT-29 cells assessed as reduction in cell viability by MTT assay; type: functional, cell-based
HT-29 [12] = assay: Cell cycle arrest in human HT-29 cells assessed as accumulation at G2/M phase at 1 uM after 48 hrs (reference value: 14.7%); type: functional
HCT-116 [13] = assay: Cell cycle arrest in human HCT116 cells assessed as accumulation at G2/M phase at 1 uM after 48 hrs (reference value: 21.5%); type: functional
HT-29 [14] = assay: Induction of apoptosis in human HT-29 cells assessed as in p53 protein level at 10 uM after 48 hrs by Western blot method relative to beta-actin; type: functional
HCT-116 [15] = assay: Cell cycle arrest in human HCT116 cells assessed as accumulation at G0/G1 phase at 10 uM after 48 hrs (reference value: 38.5%); type: functional
HT-29 [16] = assay: Induction of apoptosis in human HT-29 cells after 48 hrs by Annexin-V and dead cell assay; type: functional, cell-based
HCT-116 [17] = assay: Induction of apoptosis in human HCT116 cells assessed as live cells at 5 uM after 48 hrs by Annexin-V and dead cell assay (reference value: 96.75%); type: functional
HCT-116 [18] = assay: Induction of apoptosis in human HCT116 cells assessed as caspase-3 protein level at 10 uM after 48 hrs by Western blot method relative to beta-actin; type: functional
HCT-116 [19] = assay: Antiproliferative activity against human HCT116 cells at 1 to 10 uM after 48 hrs by CytoTox-96 non-radioactive assay; type: functional, cell-based
HCT-116 [20] = assay: Induction of apoptosis in human HCT116 cells assessed as live cells at 1 uM after 48 hrs by Annexin-V and dead cell assay (reference value: 96.75%); type: functional
HT-29 [21] = assay: Antiproliferative activity against human HT-29 cells at 1 to 10 uM after 48 hrs by CytoTox-96 non-radioactive assay; type: functional, cell-based
HT-29 [22] = assay: Induction of apoptosis in human HT-29 cells assessed as cyclin E protein level at 5 uM after 48 hrs by Western blot method relative to beta-actin; type: functional
HCT-116 [23] = assay: Induction of apoptosis in human HCT116 cells assessed as cleaved caspase-3 protein level at 2.5 uM after 48 hrs by Western blot method relative to caspase-3; type: functional
HT-29 [24] = assay: Induction of apoptosis in human HT-29 cells assessed as caspase-3 protein level at 5 uM after 48 hrs by Western blot method relative to beta-actin; type: functional
HT-29 [25] = assay: Induction of apoptosis in human HT-29 cells assessed as Bcl-2 protein level at 1 uM after 48 hrs by Western blot method relative to beta-actin; type: functional
HCT-116 [26] = assay: Induction of apoptosis in human HCT116 cells assessed as CDK2 protein level at 2.5 uM after 48 hrs by Western blot method relative to beta-actin; type: functional
HT-29 [27] = assay: Anticlonogenic activity against human HT-29 cells assessed as inhibition of colony formation after 4 to 5 days by crystal violet staining-based assay; type: functional, cell-based
HCT-116 [28] = assay: Induction of apoptosis in human HCT116 cells assessed as cyclin E protein level at 5 uM after 48 hrs by Western blot method relative to beta-actin; type: functional
HCT-116 [29] = assay: Induction of apoptosis in human HCT116 cells assessed as early apoptotic cells at 10 uM after 48 hrs by Annexin-V and dead cell assay (reference value: 1.70%); type: functional
HCT-116 [30] = assay: Induction of apoptosis in human HCT116 cells assessed as p21 protein level at 10 uM after 48 hrs by Western blot method relative to beta-actin; type: functional
HT-29 [31] = assay: Induction of apoptosis in human HT-29 cells assessed as Bcl-2 protein level at 5 uM after 48 hrs by Western blot method relative to beta-actin; type: functional
HCT-116 [32] = assay: Induction of apoptosis in human HCT116 cells assessed as live cells at 10 uM after 48 hrs by Annexin-V and dead cell assay (reference value: 96.75%); type: functional
HT-29 [33] = assay: Induction of apoptosis in human HT-29 cells assessed as CDK2 protein level at 5 uM after 48 hrs by Western blot method relative to beta-actin; type: functional
HCT-116 [34] = assay: Cytotoxicity against human HCT116 cells assessed as reduction in cell viability by MTT assay; type: functional, cell-based

In the case of `O=C(OC[C@H]1O[C@@H](OC(=O)c2cc(O)c(O)c(O)c2)[C@H](OC(=O)c2cc(O)c(O)c(O)c2)[C@@H](OC(=O)c2cc(O)c(O)c(O)c2)[C@@H]1OC(=O)c1cc(O)c(O)c(O)c1)c1cc(O)c(O)c(O)c1` [PENTAGALLOYL GLUCOSE], the Activity (HT-29 [1]) is reported as “Active”, the Activity (HT-29 [2]) is reported as “Active” and the Activity (HCT-116 [3]) is reported as “Dose-dependent effect”. The “fold change (FC)” value (HT-29 [4]) was 7, the “fold change (FC)” value (HCT-116 [5]) was 0.4 and the “fold change (FC)” value (HCT-116 [6]) was 1. For the same compound, the “fold change (FC)” value (HT-29 [7]) was 0.7, the “fold change (FC)” value (HCT-116 [8]) was 4.9 and the Activity (HCT-116 [9]) was 1.35%. The “fold change (FC)” value (HT-29 [10]) was 0.9, the IC50 (HT-29 [11]) was 4.46 µM and the Activity (HT-29 [12]) was 14.8%. The Activity (HCT-116 [13]) was 18.1%, the “fold change (FC)” value (HT-29 [14]) was 6 and the Activity (HCT-116 [15]) was 32.2%. The Activity (HT-29 [16]) was “Dose-dependent effect”, the Activity (HCT-116 [17]) was 93.35% and the “fold change (FC)” value (HCT-116 [18]) was 488.4. The Activity (HCT-116 [19]) was “Active”, the Activity (HCT-116 [20]) was 98.25% and the Activity (HT-29 [21]) was “Active”. The “fold change (FC)” value (HT-29 [22]) was 0.8, the “fold change (FC)” value (HCT-116 [23]) was 1.8 and the “fold change (FC)” value (HT-29 [24]) was 5.9. The “fold change (FC)” value (HT-29 [25]) was 0.7, the “fold change (FC)” value (HCT-116 [26]) was 0.8 and the Activity (HT-29 [27]) was “Dose-dependent effect”. For the same compound, the “fold change (FC)” value (HCT-116 [28]) was 0.6, the Activity (HCT-116 [29]) was 3.2% and the “fold change (FC)” value (HCT-116 [30]) was 1.6. The “fold change (FC)” value (HT-29 [31]) was 0.4, the Activity (HCT-116 [32]) was 90.45% and the “fold change (FC)” value (HT-29 [33]) was 0.4. It also gave an IC50 (HCT-116 [34]) of 1.61 µM.
